We go through 16 compounds from ChEMBL document CHEMBL2203284, “Synthesis and structure based optimization of 2-(4-phenoxybenzoyl)-5-hydroxyindole as a novel CaMKII inhibitor” (Bioorg Med Chem, 2012).

The nature of data set [1]: Inhibition of recombinant CaMK2 expressed in Sf9cells using autocamtide-2/CAM as substrate after 90 mins. Conditions: sf9.
Data set [2] in a line: Solubility of the compound in water at pH 7.4. The format is physicochemical.
Data set [3] can be described thus: Selectivity ratio of IC50 for PKCgamma to IC50 for recombinant CaMK2.
The nature of data set [4]: Selectivity ratio of IC50 for Akt1 to IC50 for recombinant CaMK2.
Data set [5] in a line: Selectivity ratio of IC50 for MLCK to IC50 for recombinant CaMK2.
The nature of data set [6]: Selectivity ratio of IC50 for p38alpha to IC50 for recombinant CaMK2.

Where only a bound is given, the exact number is not on record here.

In the case of `O=C(c1ccc(Oc2ccccc2)cc1)c1cc2c(OCCN3CCCCC3)cccc2[nH]1`, the IC50 in data set [1] came out at 820 nM. In data set [2], `O=C(c1ccc(Oc2ccccc2)cc1)c1cc2c(Cl)c(O)c(Cl)cc2[nH]1` registered a solubility of less than 1 µg/mL. Also, in data set [1], the IC50 turned out to be 61 nM. Turning to `O=C(c1ccc(Oc2ccccc2)cc1)c1cc2c(OCCN3CCNCC3)cccc2[nH]1`, the IC50 in data set [1] is 270 nM. For the compound `O=C(c1ccc(Oc2ccccc2)cc1)c1cc2c(Br)c(O)ccc2[nH]1`, the Ratio IC50 in data set [3] came out at 550; in data set [4], 1500; in data set [5], 12; in data set [6] it was 115. Moreover, the solubility in data set [2] was less than 1 µg/mL. The IC50 in data set [1] amounted to 40 nM. For `O=C(c1ccc(Oc2ccccc2)cc1)c1cc2c(Cl)c(O)ccc2[nH]1`, the IC50 in data set [1] amounted to 640 nM.

With `O=C(c1ccc(Oc2ccccc2)cc1)c1cc2c(OCCN3CCC(O)CC3)cccc2[nH]1`, in data set [1], the IC50 amounted to 420 nM.

On to `O=C(c1ccc(Oc2ccccc2)cc1)c1cc2c(Br)c(O)c(Br)cc2[nH]1`, for which the Ratio IC50 in data set [3] is 1250; in data set [4] it was greater than 5000; in data set [5] it was 63; in data set [6], 450. This compound returned a solubility in data set [2] of less than 1 µg/mL. Further, the IC50 in data set [1] was 12 nM. For `O=C(O)COc1ccc2[nH]c(C(=O)c3ccc(Oc4ccccc4)cc3)cc2c1`, the IC50 in data set [1] came to 510 nM. Consider `Cc1c(O)ccc2[nH]c(C(=O)c3ccc(Oc4ccccc4)cc3)cc12`, for which, in data set [1], the IC50 stood at 1300 nM. In the case of `O=C(c1ccc(Oc2ccccc2)cc1)c1cc2c(OCCCN3CCCCC3)cccc2[nH]1`, in data set [1], the IC50 turned out to be 800 nM. Same read-out and setting: under `CC(C)(Oc1ccc2[nH]c(C(=O)c3ccc(Oc4ccccc4)cc3)cc2c1)C(=O)O` stands 1500 nM.

For the compound `CCNCCOc1ccc2[nH]c(C(=O)c3ccc(Oc4ccccc4)cc3)cc2c1`, the IC50 in data set [1] was 1500 nM. On the same count and under the same terms, the value for `COc1ccc2[nH]c(C(=O)c3ccc(Oc4ccccc4)cc3)cc2c1` was greater than 10000 nM; that for `NCCOc1cccc2[nH]c(C(=O)c3ccc(Oc4ccccc4)cc3)cc12` was 2600 nM. For `O=C(c1ccc(Oc2ccccc2)cc1)c1cc2cc(O)ccc2[nH]1`, the Ratio IC50 in data set [3] is 93; in data set [4], 295; in data set [5], less than 1; in data set [6], less than 1. Also, the IC50 in data set [1] came to 610 nM. For `CCNCCOc1cccc2[nH]c(C(=O)c3ccc(Oc4ccccc4)cc3)cc12`, the IC50 in data set [1] stood at 1100 nM.

The IC50 is the point on the concentration scale where inhibition reaches its midpoint. A word on the solubility: it is how much of the substance goes into solution per volume.
